Experimental data published in US20030003579A1, “Dendritic cells; methods” (priority 2000, published 2003).

What was measured:
[1] = system: monocytes; assay: Cytokine production by monocytes, ELISA of supernatants; type: cell-based, human; details: 24 h; for IFN-α production by monocytes: CpG ODNs (2117, 2006, 1668: 1 μM; ACC-30, AAC-30, GAC-30: 5 μM)
Experimental: (§1) Underlines indicate palindromic sequences. ODNs 1668, 2117, and 2006 are phosphorothioate forms, and ACC-30, AAC-30, and GAC-30 are phosphodiester forms. The phosphorothioate ODNs were added at 0 h at 0.1 μM or 1 μM, and the phosphodiester ODNs were added at 0, 4, and 16 h, 5 μM at each time point, to compensate for their degradation by deoxyribonuclease activity in media.
(§2) Monocytes, CD11c^+ DC, and pre-DC2 were isolated from human peripheral blood. See Grouard, et al. (1997) J. Exp'l Med. 185:1101-1111; and Kadowaki, et al. (2000) J. Exp'l Med. 192:219-226. The cells were cultured for 24 h in RPMI1640 containing 10% FCS at 2×10^4/200 μl in round-bottom 96-well culture plates in the presence of ODNs or 50 μg/ml poly I:C (Sigma). Adult dermal fibroblasts (Clonetics) were maintained as recommended by the company, and were stimulated with 50 μg/ml poly I:C for 24 h at 7.5×10^4/ml in 12-well culture plates.
(§3) An IFN-α ELISA kit, an IL-12 ELISA kit (Biosource International), and an IFN-β ELISA kit (FUJIREBIO) were used to analyze cytokine production.
(§4) It was examined whether CpG ODNs and poly I:C induce pre-DC2 to produce IFN-α. Cells were stimulated with various CpG ODNs (2117, 2006, 1668: 1 μM, ACC-30, AAC-30, GAC-30: 5 μM) for 24 h, and the concentrations of IFN-α in the supernatants were measured by ELISA. Typically, cytokine is accumulated from cultures of about 2×10^4 cells in 200 μl cultured for 24 h. […] In contrast, AAC-30 and GAC-30 induced pre-DC2 to produce large amounts of IFN-α (AAC-30 508-1806 pg/ml, GAC-30 931-1362 pg/ml). ACC-30 induced pre-DC2 to produce much smaller amounts of IFN-α (18-161 pg/ml). None of the CpG ODNs used here induced CD11c^+ DC and monocytes to produce detectable levels of IFN-α.

[2] = system: CD11c^+ DC; assay: Cytokine production by CD11c+ DC, ELISA of supernatants; type: cell-based, human; details: 24 h
Experimental: as §1, §2, §3, §4

[3] = system: pre-DC2; assay: Viability of pre-DC2 by propidium iodide staining and flow cytometry; type: cell-based, human; details: 24 h culture
Experimental: as §1, §2
IV. Analysis of viability of pre-DC2 stimulated with ODNs or poly I:C Pre-DC2 cultured for 24 h without stimulation or with ODNs or poly I:C were stained with propidium iodide, and were analyzed with a FACScan® flow cytometer (Becton Dickinson). After cell debris was excluded by an appropriate forward scatter threshold, the percentages of propidium iodide-negative cells were calculated.
Pre-DC2 were cultured for 24 h without stimulation, with the indicated ODNs, or with 50 μg/ml poly I:C. ACC-30, AAC-30, and GAC-30 were added at 5 μM. After cell debris was excluded by an appropriate forward scatter threshold, the percentages of propidium iodide-negative cells were measured by flow cytometry

[4] = system: pre-DC2; assay: Flow cytometric analysis of CD80 and CD86 expression on pre-DC2; type: cell-based, human; details: for expression of CD80 and CD86 on pre-DC2: 5 μM phosphodiester ODN, 24 h
Experimental: as §1, §2
(§5) Freshly isolated pre-DC2 and pre-DC2 stimulated with ODNs for 24 h were stained with PE-conjugated anti-CD80 (L307.4, Becton Dickinson), PE-conjugated anti-CD86 (2331, Pharmingen), or an isotype control antibody. CD11c^+ DC cultured for 24 h without stimulation or with poly I:C were stained with FITC-conjugated anti-CD80 (L307.4), FITC-conjugated anti-CD86 (2331), or an isotype control antibody. The cells were analyzed with a FACScan® flow cytometer. Dead cells were excluded by staining with propidium iodide.
Freshly isolated pre-DC2 and pre-DC2 cultured with the CpG ODNs for 24 h were stained with PE-conjugated anti-CD80 or anti-CD86 mAbs. The upregulation of CD80 and CD86 expression on pre-DC2 is a hallmark of their differentiation into DC. Grouard, et al. (1997) J. Exp'l Med. 185:1101-1111; and Kadowaki, et al. (2000) J. Exp'l Med. 192:219-226.

[5] = system: pre-DC2; assay: Cytokine production by pre-DC2, ELISA of supernatants; type: cell-based, human; details: 24 h
Experimental: as §1, §2, §3, §4

[6] = system: Adult dermal fibroblasts; assay: IFN-β production by poly I:C stimulated fibroblasts, ELISA; type: cell-based; details: 50 μg/ml poly I:C, 24 h, 7.5×10^4/ml
Experimental: as §2, §3

[7] = system: CD11c^+ DC; assay: Flow cytometric analysis of CD80 and CD86 expression on CD11c+ DC; type: cell-based, human; details: 50 μg/ml poly I:C, 24 h culture
Experimental: as §2, §5
CD11c^+ DC cultured for 24 h without stimulation or with 50 μg/ml poly I:C were stained with FITC-conjugated anti-CD80 or anti-CD86 mAbs. […] Cella, et al. (1999) J. Exp'l Med. 189:821-829; and Verdijk, et al. (1999) J. Immunol. 163:57-61. […]

[8] = CpG ODNs (2117, 2006, 1668: 1 μM; ACC-30, AAC-30, GAC-30: 5 μM)
[9] = 5 μM phosphodiester ODN added at 0, 4 and 16 h
[10] = 5 μM ODN, about 2×10^4 cells in 200 μl

Substance	IFN-α production by monocytes [1]	IFN-α production by CD11c+ DC [2, 8]	survival of pre-DC2 (propidium iodide-negative cells) [3, 9]	expression of CD80 and CD86 on pre-DC2 [4]	IFN-α production by pre-DC2 [5, 10]	other results
GAC-30: palindromic CpG oligodeoxynucleotide ACCGATGACGTCGCCGGTGACGGCACCACG (DNA, all phosphodiester, methylation of C not given here)	did not produce detectable levels of IFN-α	did not produce detectable levels of IFN-α	maintained the survival of pre-DC2	upregulated CD80 and CD86, albeit to a lesser extent than 2006 and 2117	931 to 1362 pg/mL	
1668: CpG oligodeoxynucleotide TCCATGACGTTCCTGATGCT (DNA, all phosphorothioate, methylation of C not given here) [compound 1668]						survival of pre-DC2 (propidium iodide-negative cells) ([3]; 1 μM phosphorothioate ODN): did not maintain the survival of pre-DC2; IFN-α production by pre-DC2 ([5]; 1 μM ODN, about 2×10^4 cells in 200 μl): did not induce pre-DC2 to produce detectable levels of IFN-α
ACC-30: oligodeoxynucleotide ACCGATACCGGTGCCGGTGACGGCACCACG (DNA, all phosphodiester, methylation of C not given here)			less efficient		18 to 161 pg/mL	
polyinosinic polycytidylic acid [poly I:C]						IFN-β production by monocytes ([1]; 50 μg/ml poly I:C): but not pre-DC2 or monocytes; IFN-α production by CD11c+ DC ([2]; 50 μg/ml poly I:C): 24.1 to 97.9 pg/mL; IFN-β production by CD11c+ DC ([2]; 50 μg/ml poly I:C): 33.6 to 166.5 pg/mL; IL-12 production by CD11c+ DC ([2]; 50 μg/ml poly I:C): 17.7 to 137.7 pg/mL; survival of pre-DC2 (propidium iodide-negative cells) ([3]; 50 μg/ml poly I:C): did not maintain the survival of pre-DC2; differentiation of pre-DC2 into DC ([4]; poly I:C): does not stimulate pre-DC2 to survive and to differentiate into DC; IFN-β production by fibroblasts [6]: 28.6 to 48.5 pg/mL; expression of CD80 and CD86 on CD11c+ DC [7]: strongly upregulated; IFN-α production by pre-DC2 ([5]; 50 μg/ml poly I:C): did not induce pre-DC2 to produce a detectable level of IFN-α
AAC-30: palindromic CpG oligodeoxynucleotide ACCGATAACGTTGCCGGTGACGGCACCACG (DNA, all phosphodiester, methylation of C not given here)	did not produce detectable levels of IFN-α	did not produce detectable levels of IFN-α	maintained the survival of pre-DC2	upregulated CD80 and CD86, albeit to a lesser extent than 2006 and 2117	508 to 1806 pg/mL	
